Source: publication PMC8477192, “An ionic lock and a hydrophobic zipper mediate the coupling between an insect pheromone receptor BmOR3 and downstream effectors” (The Journal of Biological Chemistry, 2021)

How the values were obtained:
BmOR3 and BmOrco = test: CalfluxVTN Ca2+ assay (BRET-based calcium sensor); format: cell-based, Bombyx mori
Description: HEK293 cells were cotransfected with plasmids encoding WT BmOR3 and BmOrco or their mutants, or AT1R together with CalfluxVTN probe. 24 h after transfection, cells were redistributed into 96-well flat-bottomed microplates. After another 24 h, cells were incubated with conventional buffer with Ca^2+ (135 mM NaCl, 5 mM KCl, 1 mM CaCl2, 5 mM D-glucose, 10 mM Hepes; pH = 7.4) or with Ca^2+-free buffer (135 mM NaCl, 5 mM KCl, 1 mM EGTA, 5 mM D-glucose, 10 mM Hepes; pH = 7.4), and stimulated with different concentrations of Bombykal (or AngII). The BRET ratio between Venus and Nluc was measured before (baseline) and after the addition of the Nluc substrate furimazine (5 μM) using a Mithras LB 940 multimode reader (Berthold Technologies). The BRET signal was calculated as ratio of emission of Venus (530 nm) to Nluc (460 nm). The baseline value was subtracted from the bombykal-stimulated BRET signal to obtain the ΔBRET value.

BmOR3 [1] = target: T1, BmOR3 (Bombyx mori, UniProt Q5FBE0); test: Western blotting of ERK and SRC phosphorylation; format: cell-based; settings: BmOR3-expressing HEK293 cells; 1 μM, 15 min; abrogated in β-arrestin siRNA-transfected cells
Description: HEK293 cells transfected with BmOR3 in the absence or presence of βarrestin1/2 siRNA were starved for 12 h at 37 °C before stimulated with 1 μM bombykal for 15 min. The cells were lysed in ice-cold lysis buffer (50 mM Tris-HCl, pH 7.4, 150 mM NaCl, 1 mM NaF, 1% Triton, 2 mM EDTA, 1% NP-40, 1% protease and phosphatase inhibitor cocktail), and the supernatant was collected after centrifugation. Proteins were separated by PAGE and transferred to PVDF membrane. After blocking in PBS containing 5% bovine serum albumin and 0.1% Tween-20, the membrane was incubated with the primary antibody at 4 °C overnight, followed by incubation with HRP conjugate–secondary antibody at RT for an hour. The signals were detected with the ECL system (Thermo Fisher Scientific). Primary antibodies were as follows: anti-ERK (Santa Cruz, Cat. No. sc-154); anti-pERK (Proteintech, Cat. No. 15361-1-AP); anti-SRC (Cell Signaling Technology, Cat. No. 2109S); anti-pSRC(Y416) (Cell Signaling Technology, Cat. No. 2101S); anti-beta actin (ORIGENE, Cat. No. TA811000); anti-βarrestin1(Proteintech, Cat. No. 15361-1-AP); anti-βarrestin2 (Proteintech, Cat. No. 10171-1-AP).

BmOR3 [2] = target: T1, BmOR3; test: G protein recruitment BRET assay (Gi-Rluc to YFP-BmOR3); format: cell-based; settings: HEK293 cells, 2 min stimulation
Description: Gi1-Rluc, Gi2-Rluc, and Gi3-Rluc plasmids were constructed according to previous report ([30]). HEK293 cells were transiently cotransfected with N-terminal YFP-tagged BmOR3 together with Gi-Rluc plasmids. Twenty-four hours after transfection, cells were distributed into a 96-well microplate. After another 24 h, the cells were stimulated with an increasing amount of bombykal for 2 min. The light emission of Rluc (485 nm) and YFP (530 nm) was measured after the addition of the Rluc substrate coelenterazine h (5 μM) using a Mithras LB 940 multimode reader (Berthold Technologies). The BRET signal was calculated as the ratio of emission of YFP to Rluc. The net BERT value was calculated by subtracting the BRET signal obtained in the cells transfected with Rluc-Gi plasmids only.

BmOR3 [3] = target: T1, BmOR3; test: Arrestin recruitment BRET assay; format: cell-based; settings: HEK293 cells, 10 min stimulation
Description: HEK293 cells were transiently cotransfected with the N-terminal YFP-tagged BmOR3 together with N-terminal Rluc-fused β-arrestin-1, β-arrestin-2, or BmArr plasmids. Twenty-four hours after transfection, cells were distributed into a 96-well microplate and incubated for additional 24 h. The cells were stimulated with varying concentrations of bombykal for 10 min, and the BRET signal between YFP (530 nm) and Rluc (485 nm) was measured after the addition of the Rluc substrate coelenterazine h (5 μM) using a Mithras LB 940 multimode reader (Berthold Technologies). The BRET signal was calculated as the ratio of emission of YFP to Rluc.

T1 sequence (Q5FBE0 entry or part of it): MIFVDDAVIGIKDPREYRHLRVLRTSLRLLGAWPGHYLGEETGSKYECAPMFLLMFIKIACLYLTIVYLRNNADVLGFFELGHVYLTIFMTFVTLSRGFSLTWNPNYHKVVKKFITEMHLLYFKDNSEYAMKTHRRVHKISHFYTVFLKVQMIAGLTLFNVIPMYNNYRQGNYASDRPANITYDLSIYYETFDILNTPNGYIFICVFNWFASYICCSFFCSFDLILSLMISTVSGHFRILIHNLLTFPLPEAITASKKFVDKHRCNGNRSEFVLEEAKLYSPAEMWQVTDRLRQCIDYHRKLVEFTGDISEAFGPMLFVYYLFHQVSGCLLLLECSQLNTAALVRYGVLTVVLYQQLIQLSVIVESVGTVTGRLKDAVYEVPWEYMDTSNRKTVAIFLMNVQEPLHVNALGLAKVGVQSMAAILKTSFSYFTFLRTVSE

Question: For CCC/C=C\C=C\CCCCCCCCC=O [bombykal], which “Ca2+ signal through BmOR3–BmOrco in the Ca2+-free incubating buffer” value (BmOR3 and BmOrco; 1 μM, Ca2+-free buffer versus Ca-containing buffer) is on record?
Answer: Its value is “completely abolished”.

Question: What about the “Ca2+ response through BmOR3/BmOrco relative to that induced by angiotensin II through activating AT1R” value (BmOR3 and BmOrco; 1 μM, CalfluxVTN-expressing HEK293 cells, receptors expressed at similar levels) of the same compound?
Answer: The value was “approximately 70%”.

Question: And the “calcium influx in response to stimulation” value (BmOR3 and BmOrco; HEK293 cells coexpressing BmOR3 and BmOrco, not with BmOR3 or BmOrco alone)?
Answer: Its value is “elicited robust calcium influx”.

Question: And the “phosphorylation level of ERK” value (BmOR3 [1])?
Answer: The value was “significantly elevated”.

Question: What about the “phosphorylation level of SRC” value (BmOR3 [1]) of the same compound?
Answer: Its value is “significantly elevated”.

Question: And the EC50 (BmOR3 [2]; Gi1, read-out: EC50 of coupling of Rluc-tagged Gi1 to YFP-fused BmOR3)?
Answer: The EC50 was 0.0117 ± 0.00119 µM.

Question: And the EC50 (BmOR3 [2]; Gi2, read-out: EC50 of coupling of Rluc-tagged Gi2 to YFP-fused BmOR3)?
Answer: The EC50 was 0.022 ± 0.00322 µM.

Question: And the EC50 (BmOR3 [2]; Gi3, read-out: EC50 of coupling of Rluc-tagged Gi3 to YFP-fused BmOR3)?
Answer: The EC50 was 0.0106 ± 0.00206 µM.

Question: And the EC50 (BmOR3 [3]; BmArr1, read-out: potency of recruitment of BmArr1 to BmOR3 (concentration-dependent))?
Answer: Its EC50 is 0.09 ± 0.0111 µM.

Question: What about the EC50 (BmOR3 [3]; β-arrestin-2, read-out: potency of recruitment of β-arrestin-2 to BmOR3 (concentration-dependent)) of the same compound?
Answer: The EC50 was 0.151 ± 0.0213 µM.
